Several values for one entry are separate records, joined by “and”; a condition that tells them apart may be missing. Identical values can stand only once. Counter-ions that a name gives are not always drawn. Like-named read-outs stand apart in the source and are kept apart here.
Assays:
[1] = test system: human mammary carcinoma MX-1 xenograft; assay: Antitumor therapeutic effect against MX-1 xenograft in nude mice; format: in vivo; settings: i.v. injection; for Therapeutic effect: complete tumor remission (CR), mice with CR/total and day: treatment from Day 8, dose and schedule per compound as in Table 3 (30-150 mg/kg); for Maximal body-weight loss (%) / Therapeutic effect: tumor relapse: dose and schedule per compound as in Table 3
Description: (§1) Athymic nude mice bearing the nu/nu gene were obtained from NCI, Frederick, Md. and used for all human tumor xenografts. Male nude mice 6 weeks or older weighing 20-24 g or more were used. Compounds were administered via the tail vein for i.v. injection or infusion as described previously.^64 A typical formulation for chemotherapeutic studies for each drug was dissolved in DSMO to make a 25 mg/ml fresh solution, 0.4 ml of this solution was mixed with 0.3 ml of Tween 80, plus 1.3 ml to make 2 ml of 5 mg/ml solution. Bolus injection volume was 0.1-0.2 ml per mouse. Tumor volume was assessed by measuring length×width×height (or width) by using a caliper. For tumor-bearing nude mice during the course of the experiment, the body weight refers to total weight minus the weight of the tumor. All animal studies were conducted in accordance with the guidelines for the National Institute of Health Guide for the Care and Use of Animals and the protocol approved by the Institutional Animal Care and Use Committee.
The therapeutic effects of a drug against human tumor xenografts in nude mice, under the optimal therapeutic conditions but without any lethality due to drug toxicity, the following degrees of therapeutic effects are defined and calculated by the following formula: […]
where • T0 is the initial tumor size (in mm^3) at beginning of drug treatment; • Tc is tumor size of untreated control group on a given date; and • Tx is tumor size of the drug treated group on a given date.
[formula] • Tumor disappearance (complete remission or CR) is defined by the effect where • [Tx=0] for a period of time (in days) for a proportion of animals (NCR/N), where • N is the total number of animals in the group, and NCR is the number of mice in the group that achieved CR. • Tumor relapse is quantitatively calculated by • [The Day tumor relapsed (Drelp)—The Day CR achieved (DCR)] (Eq. 3) for a proportion of animals (Nrelp/N) where N is the total number of animals in the group, and Nrelp is the number of the mice in the group that relapsed. • The log cell kill (LCK) of the tumor tissue after a given chemotherapy that reached CR is estimated by: LCK=log [2^(Tumor remission in days/Tumor doubling time in days)] (Eq. 4)
(§2) Athymic nude mice bearing the nu/nu gene were used for human breast tumor MX-1 xenograft (FIGS. 3 and 4) and human brain glioma U87 GM xenograft (FIG. 5). Nude mice were obtained from National Cancer Institute, Frederick, Md. Male mice 6 weeks old or older weighing 22 g or more were used for experiments with subcutaneous tumor inoculation as described previously.^67 Drug was administrated via the tail vein by iv injection. Tumor volumes were assessed by measuring length×width×height (or width) by using caliper. Vehicle used was 20 μL DMSO in 180 μL saline. All animal studies were conducted in accordance with the guidelines of the U.S. National Institutes of Health Guide for the Care and Use of Animals and the protocol approved by the Institutional Animal Care and Use Committee.

[2] = test system: Human mammary carcinoma (MX-1) tumor cells; assay: In vitro cytotoxicity, SRB assay, 72-hr incubation; settings: read-out: Cytotoxicity IC50, MX-1
[3] = test system: CCRF-CEM human lymphoblastic leukemia cells; assay: cells; settings: 72 h, read-out: Cytotoxicity IC50, CCRF-CEM
CCRF-CEM/Taxol = assay: In vitro cytotoxicity, XTT assay, taxol-resistant subline; settings: read-out: Cytotoxicity IC50, CCRF-CEM/Taxol
[4] = test system: biosynthesis of DNA, RNA and protein in MX-1 cells; assay: Inhibition of biosynthesis of DNA, RNA and protein (tritiated tracer incorporation); format: cell-based, human; settings: for inhibition at 10 µM: Homo sapiens, MX1, read-out: Protein synthesis inhibition
Description: [^3H]Thymidine (1 uCi), [^3H]adenosine (1 μCi) and [^3H]leucine (2 μCi) were used as the tracers for incorporation into DNA, RNA and protein, respectively. […] Incubation was terminated at each time points as indicated.

[5] = test system: Human colon carcinoma HCT-116 cells; assay: cells; settings: HCT-116, 72 h, read-out: Cytotoxicity IC50, HCT-116
[6] = test system: human glioma U87 GM s.c. xenograft; assay: Therapeutic effect against U87 glioma s.c. xenograft in nude mice; format: in vivo
Description: as §1
as §2, with “Committee. […]” for “Committee.”

[7] = Half-life in intravenous injection vehicle; settings: intravenous injection vehicle (DMSO/Tween 80/saline)
[8] = test system: Human colon carcinoma HCT-116 cells; settings: read-out: Cytotoxicity IC50, HCT-116
[9] = test system: CCRF-CEM human lymphoblastic leukemia cells; settings: read-out: Cytotoxicity IC50, CCRF-CEM
lung cancer H460 = assay: cells; settings: read-out: Cytotoxicity IC50, H460; Table 2
lung cancer H1299 = assay: cells; settings: read-out: Cytotoxicity IC50, H1299; Table 2
prostate cancer (PC3) = assay: cells; settings: read-out: Cytotoxicity IC50, PC3; Table 2

`CN(C)CCC(=O)Nc1cccc(NC(=O)Nc2ccc(N(CCCl)CCCl)cc2)c1` (as salt: HCl) [BO-2091, N-(3-(3-(4-(bis(2-chloroethyl)amino)-phenyl)ureido)phenyl)-3-(dimethylamino)-propanamide] gave a melting point of 88 to 90 °C.
Work on `CN(C)CC(=O)Nc1cccc(NC(=O)Nc2ccc(N(CCCl)CCCl)cc2)c1` (as salt: hydrochloride) [BO-2189, N-(3-(3-(4-(bis(2-chloroethyl)amino)phenyl)ureido)phenyl)-2-(dimethyl-amino)acetamide] yielded a melting point of 62 to 64 °C.
In the case of `Cc1cc(NC(=O)Nc2ccc(N(CCCl)CCCl)cc2)c2ccccc2n1` [BO-1038, 1-{4-[bis(2-chloroethyl)amino]phenyl}-3-(2-methylquinolin-4-yl)urea], the “Therapeutic effect: complete tumor remission (CR), mice with CR/total and day” value [1] is reported as “achieved complete tumor remission and 3/3 CR on D16, 16, 16”, the “Maximal body-weight loss (%)” value [1] is reported as 4% and the “Therapeutic effect: tumor relapse” value [1] is reported as “No relapse on D70”. For the same compound, the IC50 ([2]; Homo sapiens, 72 h) was 340 nM, the IC50 [3] was 190 nM and the IC50 (CCRF-CEM/Taxol; Homo sapiens, CCRF-CEM, 72 h) was 430 nM. The inhibition at 10 µM [4] was 40 to 80% and the IC50 [5] was 1420 nM.
In the case of `Cc1ccc(Nc2c3ccccc3nc3c(C)cccc23)cc1NC(=O)Nc1ccc(N(CCCl)CCCl)cc1` [BO-1051], the “Therapeutic effect: complete tumor remission (CR), mice with CR/total and day” value [1] is reported as “achieved complete tumor remission and 3/3 CR on D16, 16, 18”, the “Maximal body-weight loss (%)” value [1] is reported as 11% and the “Therapeutic effect: tumor relapse” value [1] is reported as “No relapse on D70”. For the same compound, the half-life (Half-life in rat plasma) was 2.25 days, the “Tumor size as % of original tumor size” value ([6]; 100 mg/kg, Q2D×5, n=3, one cycle, 10 and 12 days after last dose) was 18% and the Tumor-growth suppression ([6]; BO-1049 150 mg/kg, BO-1051 100 mg/kg, BO-1055 30 mg/kg, Q2D×5, i.v.-injection) was “complete tumor-growth suppression”. The “Therapeutic effect compared with cyclophosphamide (80 mg/kg, Q2D×5)” value ([6]; parallel study) was “superior therapeutic effects than cyclophosphamide”, the IC50 [3] was 80 nM and the IC50 (CCRF-CEM/Taxol; Homo sapiens, CCRF-CEM, 72 h) was 90 nM. For the same compound, the “Delay in reaching maximal effect on DNA and RNA biosynthesis” value ([4]; 10 μM) was “about 1 hr”, the inhibition at 10 µM [4] was less than 20% and the half-life [7] was roughly 45 days. The IC50 [5] was 440 nM.
Work on `Cc1ccc(Nc2c3ccccc3nc3ccccc23)cc1NC(=O)Nc1ccc(N(CCCl)CCCl)cc1` [BO-1150] yielded an IC50 ([2]; Table 1, SRB, 72-hr incubation) of 580 nM, an IC50 (CCRF-CEM/Taxol; Table 1, XTT, 72-hr incubation) of 30 nM and an IC50 ([8]; Table 1, SRB, 72-hr incubation) of 260 nM. The IC50 ([9]; Table 1, XTT, 72-hr incubation) was 20 nM.
For `CC(C)COC(=O)Nc1cc(COC(=O)Nc2ccc(N(CCCl)CCCl)cc2)cc(Nc2c3ccccc3nc3ccccc23)c1` [BO-1244], the IC50 ([2]; Table 1, SRB, 72-hr incubation) was 1130 nM, the IC50 (CCRF-CEM/Taxol; Table 1, XTT, 72-hr incubation) was 650 nM and the IC50 ([8]; Table 1, SRB, 72-hr incubation) was 300 nM. The IC50 ([9]; Table 1, XTT, 72-hr incubation) was 190 nM.
`Cc1cccc2c(Nc3cc(COC(=O)Nc4ccc(N(CCCl)CCCl)cc4)cc(NC(=O)OCC(C)C)c3)c3ccccc3nc12` [BO-1245] gave an IC50 ([2]; Table 1, SRB, 72-hr incubation) of 5970 nM, an IC50 (CCRF-CEM/Taxol; Table 1, XTT, 72-hr incubation) of 3360 nM and an IC50 ([8]; Table 1, SRB, 72-hr incubation) of 2400 nM.
Compound `N.N.[Cl][Pt][Cl]` [Cisplatin, reference compound] has an IC50 (lung cancer H460) of 18400 nM, an IC50 (lung cancer H1299) of 13600 nM and an IC50 (prostate cancer (PC3)) of 9960 nM. For the same compound, the IC50 ([8]; Table 2) was 12700 nM and the IC50 ([9]; Table 2) was 3540 nM.

Reference: patent publication US9193687B2 (priority 2007, dated 2015)
